# Measured values reported in patent publication US11542497B2, “Method for evaluating multiple different genes of interest” (THE UNIVERSITY OF TOKYO, priority 2017, dated 2023).
# Experiments:
# [1] = tested on: DLD1 BRCA2 (−/−) line with introduced BRCA2 variants; assay: MANO-B method, olaparib at varied concentrations (Example 7); type: cell-based; conditions: for relative read count (no chemical = 1): Day 12, average of n=3
# Protocol: (§1) First, 3 different unique bar code sequences were added (to conduct experiments at n=3) to each of 11 different plasmids including: plasmids having wild-type BRCA2, K2729N mutation (benign), D2723H mutation (pathogenic), and 7 truncate variants in which a stop codon is introduced about every 500 amino acids (K485*, L997*, Q1502*, K1984*, C2535*, W2970*, C3304*); and piggyBac empty vector (System Biosciences, LLC). Accordingly, the total of 33 different plasmids were prepared. DLD1 BRCA2 (−/−) line was transfected with each plasmid and a transposase expression plasmid pCMV-hyPBase (Sanger Institute) in accordance with the manufacturer's protocol. In this way, cells having BRCA genes stably introduced in their genome were prepared.
# (§2) Different cell lines having mutated genes tagged with bar code sequences introduced were mixed in equal numbers. At this time point, genomic DNA was once extracted (Day 0). Here, a PARP inhibitor (olaparib) was given at varied concentrations and then cultured. Genomic DNA was extracted from the cells collected at Day 12 and was used as a template to PCR-amplify each bar code sequence. After that, deep-sequencing was performed with a next-generation sequencer. The effects of each mutation on the drug sensitivity and the cell proliferation potential were assessed from a change in the ratio of bar code read counts between the case of no chemical treatment and the case of chemical treatment.
# The results were normalized while the read count when no chemical was given was set to 1.
# When functional BRCA2 is introduced into cells, homologous recombination-mediated repair function is restored, and thus the sensitivity to the drug, a PARP inhibitor, decreases and the cells become resistant to the inhibitor. By contrast, cells having a function-deficient BRCA2 introduced are sensitive to the PARP inhibitor, so that the relative cell count decreases when the PARP inhibitor is added. Based on such criteria, the function of each mutated BRCA2 was examined. […] Thus, the mutation was determined to be a function-preserving, benign mutation, which is consistent with past reports.
# [2] = tested on: DLD1 BRCA2 (−/−) line with introduced BRCA2 mutations; assay: MANO-B method, Clinvar BRCA2 mutations, olaparib 1 μM (Example 8, FIG. 9); type: cell-based
# Protocol: as §1, §2
# Mutations registered at the Clinvar (https://www.ncbi.nlm.nih.gov/clinvar/) (18 kinds of benign mutation, 52 mutations of VUS or with conflicting interpretations, and 8 kinds of malignant mutation) were evaluated by the MANO-B method using the same procedure as of Example 7 (except that olaparib was used at 1 μM). As a result, most of the benign mutations or malignant mutations registered at the Clinvar were determined to be likewise benign or malignant, respectively, by the MANO-B method (data not shown).
structure (smiles),measurement,setting,value
O=C(c1cc(Cc2n[nH]c(=O)c3ccccc23)ccc1F)N1CCN(C(=O)C2CC2)CC1 [olaparib],relative read count (no chemical = 1),"[1]; BRCA2 C2535*, olaparib 1 nM",0.94
same,relative read count (no chemical = 1),"[1]; BRCA2 C2535*, olaparib 5 nM",0.78
same,relative read count (no chemical = 1),"[1]; BRCA2 C2535*, olaparib 10 nM",0.77
same,relative read count (no chemical = 1),"[1]; BRCA2 C2535*, olaparib 50 nM",0.4
same,relative read count (no chemical = 1),"[1]; BRCA2 C2535*, olaparib 100 nM",0.27
same,relative read count (no chemical = 1),"[1]; BRCA2 C2535*, olaparib 500 nM",0.08
same,relative read count (no chemical = 1),"[1]; BRCA2 C2535*, olaparib 1 μM",0.05
same,relative read count (no chemical = 1),"[1]; BRCA2 C3304*, olaparib 1 nM",0.98
same,relative read count (no chemical = 1),"[1]; BRCA2 C3304*, olaparib 5 nM",1.14
same,relative read count (no chemical = 1),"[1]; BRCA2 C3304*, olaparib 10 nM",1.17
same,relative read count (no chemical = 1),"[1]; BRCA2 C3304*, olaparib 50 nM",0.94
same,relative read count (no chemical = 1),"[1]; BRCA2 C3304*, olaparib 100 nM",0.69
same,relative read count (no chemical = 1),"[1]; BRCA2 C3304*, olaparib 500 nM",0.3
same,relative read count (no chemical = 1),"[1]; BRCA2 C3304*, olaparib 1 μM",0.29
same,resistance of BRCA2 D2723H mutant to the PARP inhibitor,[1]; BRCA2 D2723H,did not exhibit resistance
same,relative read count (no chemical = 1),"[1]; BRCA2 D2723H, olaparib 1 nM",0.97
same,relative read count (no chemical = 1),"[1]; BRCA2 D2723H, olaparib 5 nM",0.76
same,relative read count (no chemical = 1),"[1]; BRCA2 D2723H, olaparib 10 nM",0.67
same,relative read count (no chemical = 1),"[1]; BRCA2 D2723H, olaparib 50 nM",0.34
same,relative read count (no chemical = 1),"[1]; BRCA2 D2723H, olaparib 100 nM",0.18
same,relative read count (no chemical = 1),"[1]; BRCA2 D2723H, olaparib 500 nM",0.07
same,relative read count (no chemical = 1),"[1]; BRCA2 D2723H, olaparib 1 μM",0.07
same,relative read count (no chemical = 1),"[1]; BRCA2 K485*, olaparib 1 nM",0.79
same,relative read count (no chemical = 1),"[1]; BRCA2 K485*, olaparib 5 nM",0.66
same,relative read count (no chemical = 1),"[1]; BRCA2 K485*, olaparib 10 nM",0.54
same,relative read count (no chemical = 1),"[1]; BRCA2 K485*, olaparib 50 nM",0.26
same,relative read count (no chemical = 1),"[1]; BRCA2 K485*, olaparib 100 nM",0.15
same,relative read count (no chemical = 1),"[1]; BRCA2 K485*, olaparib 500 nM",0.06
same,relative read count (no chemical = 1),"[1]; BRCA2 K485*, olaparib 1 μM",0.05
same,relative read count (no chemical = 1),"[1]; BRCA2 K1984*, olaparib 1 nM",0.94
same,relative read count (no chemical = 1),"[1]; BRCA2 K1984*, olaparib 5 nM",0.84
same,relative read count (no chemical = 1),"[1]; BRCA2 K1984*, olaparib 10 nM",0.77
same,relative read count (no chemical = 1),"[1]; BRCA2 K1984*, olaparib 50 nM",0.36
same,relative read count (no chemical = 1),"[1]; BRCA2 K1984*, olaparib 100 nM",0.25
same,relative read count (no chemical = 1),"[1]; BRCA2 K1984*, olaparib 500 nM",0.08
same,relative read count (no chemical = 1),"[1]; BRCA2 K1984*, olaparib 1 μM",0.05
same,resistance of BRCA2 K2729N mutant to the PARP inhibitor compared with the wild-type,[1]; BRCA2 K2729N,substantially the same resistance
same,relative read count (no chemical = 1),"[1]; BRCA2 K2729N, olaparib 1 nM",1.08
same,relative read count (no chemical = 1),"[1]; BRCA2 K2729N, olaparib 5 nM",1.58
same,relative read count (no chemical = 1),"[1]; BRCA2 K2729N, olaparib 10 nM",1.36
same,relative read count (no chemical = 1),"[1]; BRCA2 K2729N, olaparib 50 nM",1.74
same,relative read count (no chemical = 1),"[1]; BRCA2 K2729N, olaparib 100 nM",2.31
same,relative read count (no chemical = 1),"[1]; BRCA2 K2729N, olaparib 500 nM",4.76
same,relative read count (no chemical = 1),"[1]; BRCA2 K2729N, olaparib 1 μM",3.72
same,relative read count (no chemical = 1),"[1]; BRCA2 L997*, olaparib 1 nM",0.85
same,relative read count (no chemical = 1),"[1]; BRCA2 L997*, olaparib 5 nM",0.71
same,relative read count (no chemical = 1),"[1]; BRCA2 L997*, olaparib 10 nM",0.54
same,relative read count (no chemical = 1),"[1]; BRCA2 L997*, olaparib 50 nM",0.24
same,relative read count (no chemical = 1),"[1]; BRCA2 L997*, olaparib 100 nM",0.13
same,relative read count (no chemical = 1),"[1]; BRCA2 L997*, olaparib 500 nM",0.06
same,relative read count (no chemical = 1),"[1]; BRCA2 L997*, olaparib 1 μM",0.07
same,relative read count (no chemical = 1),"[1]; BRCA2 Q1502*, olaparib 1 nM",1
same,relative read count (no chemical = 1),"[1]; BRCA2 Q1502*, olaparib 5 nM",0.88
same,relative read count (no chemical = 1),"[1]; BRCA2 Q1502*, olaparib 10 nM",0.78
same,relative read count (no chemical = 1),"[1]; BRCA2 Q1502*, olaparib 50 nM",0.43
same,relative read count (no chemical = 1),"[1]; BRCA2 Q1502*, olaparib 100 nM",0.24
same,relative read count (no chemical = 1),"[1]; BRCA2 Q1502*, olaparib 500 nM",0.12
same,relative read count (no chemical = 1),"[1]; BRCA2 Q1502*, olaparib 1 μM",0.07
same,relative read count (no chemical = 1),"[1]; BRCA2 W2970*, olaparib 1 nM",0.97
same,relative read count (no chemical = 1),"[1]; BRCA2 W2970*, olaparib 5 nM",0.93
same,relative read count (no chemical = 1),"[1]; BRCA2 W2970*, olaparib 10 nM",0.75
same,relative read count (no chemical = 1),"[1]; BRCA2 W2970*, olaparib 50 nM",0.45
same,relative read count (no chemical = 1),"[1]; BRCA2 W2970*, olaparib 100 nM",0.22
same,relative read count (no chemical = 1),"[1]; BRCA2 W2970*, olaparib 500 nM",0.09
same,relative read count (no chemical = 1),"[1]; BRCA2 W2970*, olaparib 1 μM",0.07
same,relative read count (no chemical = 1),"[1]; BRCA2 wild type, olaparib 1 nM",1.22
same,relative read count (no chemical = 1),"[1]; BRCA2 wild type, olaparib 5 nM",1.52
same,relative read count (no chemical = 1),"[1]; BRCA2 wild type, olaparib 10 nM",1.92
same,relative read count (no chemical = 1),"[1]; BRCA2 wild type, olaparib 50 nM",3.19
same,relative read count (no chemical = 1),"[1]; BRCA2 wild type, olaparib 100 nM",3.82
same,relative read count (no chemical = 1),"[1]; BRCA2 wild type, olaparib 500 nM",4.2
same,relative read count (no chemical = 1),"[1]; BRCA2 wild type, olaparib 1 μM",4.42
same,relative read count (no chemical = 1),"[1]; Empty vector, olaparib 1 nM",0.98
same,relative read count (no chemical = 1),"[1]; Empty vector, olaparib 5 nM",0.82
same,relative read count (no chemical = 1),"[1]; Empty vector, olaparib 10 nM",0.69
same,relative read count (no chemical = 1),"[1]; Empty vector, olaparib 50 nM",0.38
same,relative read count (no chemical = 1),"[1]; Empty vector, olaparib 100 nM",0.21
same,relative read count (no chemical = 1),"[1]; Empty vector, olaparib 500 nM",0.07
same,relative read count (no chemical = 1),"[1]; Empty vector, olaparib 1 μM",0.05
same,MANO-B group of VUS / conflicting-interpretation BRCA2 mutations,"[2]; 5 mutants: D2913H, P2639L, S3291C, D23V, and I2664M","impossible-to-determine (the thresholds were set to 0.1 and 0.5 and the mutations were grouped into 3 groups of benign, malignant, and impossible-to-determine mutations)"
same,MANO-B group of VUS / conflicting-interpretation BRCA2 mutations,"[2]; 9 mutants: R2659G, N3124I, L2604P, W31C, E2663K, W2626R, D3073G, G2609D, and P2329L","malignant (the thresholds were set to 0.1 and 0.5 and the mutations were grouped into 3 groups of benign, malignant, and impossible-to-determine mutations)"
same,MANO-B group of VUS / conflicting-interpretation BRCA2 mutations,"[2]; 38 mutants: R2896C, A2643G, S142N, N854S, Y42C, G602V, T3387A, T2412A, E3096K, E2020K, S3319F, V1532F, E747G, S2697N, K2411T, P3054S, Q147R, S445Y, S755C, Y600C, K2075N, V159E, P41L, H595Y, F266L, R3385H, T2337A, I2627V, I1167V, N55S, V208G, P3292L, S1074C, T598A, T2071, R324T, A2911V, E1695V","benign (the thresholds were set to 0.1 and 0.5 and the mutations were grouped into 3 groups of benign, malignant, and impossible-to-determine mutations)"
same,"MANO-B score, highest score of the malignant mutations",[2]; BRCA2 G2724W,0.03839
same,"MANO-B score, lowest score of the benign mutations",[2]; BRCA2 N2436I,0.7386
